Data on six compounds can be found in ChEMBL document CHEMBL6103580, “Synthesis and biological evaluation of natural cleistanolate, its enantiomer and analogues” (Eur J Med Chem, 2025).

The nature of series [1]: Potency index, ratio of cleistanolate IC50 to test compound IC50 for antiproliferative activity against human HeLa cells assessed as inhibition of cell growth incubated for 72 hrs by MTT assay. Format: functional.
For series [2], the system named is Raji. Briefly: Antiproliferative activity against human Raji cells assessed as inhibition of cell growth incubated for 72 hrs by MTT assay. Format: functional, cell-based. In general terms: Tetrazolium dyes change colour on reduction, which living cells bring about.
Series [3] has as its system A549. Put plainly: Antiproliferative activity against human A549 cells assessed as inhibition of cell growth incubated for 72 hrs by MTT assay. Format: functional, cell-based. As to conditions: A549, 72 h.
Series [4] relates to HL-60. Briefly: Antiproliferative activity against human HL-60 cells assessed as inhibition of cell growth incubated for 72 hrs by MTT assay. The note with it: HL-60, 72 h. Format: functional, cell-based.
Series [5] is described as follows: Antiproliferative activity against human MRC5 cells assessed as inhibition of cell growth incubated for 72 hrs by MTT assay. Format: toxicity, cell-based.
Series [6] relates to MDA-MB-231. Put plainly: Antiproliferative activity against human MDA-MB-231 cells assessed as inhibition of cell growth incubated for 72 hrs by MTT assay. Format: functional, cell-based. As to conditions: MDA-MB-231, 72 h.
Series [7] concerns Jurkat. Put plainly: Antiproliferative activity against human Jurkat cells assessed as inhibition of cell growth incubated for 72 hrs by MTT assay. Format: functional, cell-based.
Series [8] concerns Raji. Put plainly: Potency index, ratio of doxorubicin IC50 to test compound IC50 for antiproliferative activity against human Raji cells assessed as inhibition of cell growth incubated for 72 hrs by MTT assay. Format: functional.
Series [9] deals with K562. Put plainly: Antiproliferative activity against human K562 cells assessed as inhibition of cell growth incubated for 72 hrs by MTT assay. Format: functional, cell-based. As to conditions: K562, 72 h.
In series [10] the test system is MCF7. Briefly: Antiproliferative activity against human MCF7 cells assessed as inhibition of cell growth incubated for 72 hrs by MTT assay. Format: functional, cell-based. The note with it: MCF7, 72 h.
Series [11] can be described thus: Potency index, ratio of doxorubicin IC50 to test compound IC50 for antiproliferative activity against human HL-60 cells assessed as inhibition of cell growth incubated for 72 hrs by MTT assay. Format: functional.
Series [12] has as its system HeLa. Briefly: Antiproliferative activity against human HeLa cells assessed as inhibition of cell growth incubated for 72 hrs by MTT assay. Format: functional, cell-based.
Series [13] relates to Raji. Put plainly: Potency index, ratio of cleistanolate IC50 to test compound IC50 for antiproliferative activity against human Raji cells assessed as inhibition of cell growth incubated for 72 hrs by MTT assay. Format: functional.
Series [14] relates to Escherichia coli. Briefly: Antibacterial activity against Escherichia coli ZPM 132 assessed as reduction in cell viability incubated for 24 hrs by muller hinton broth microdilution based XTT assay. Format: functional. For orientation: Dilution methods test growth across graded concentrations, often in twofold steps.
Series [15] has as its system Escherichia coli. Put plainly: Antimicrobial activity against Escherichia coli ZPM 132 assessed as reduction in cell viability incubated for 24 hrs by muller hinton broth microdilution based XTT assay. Format: functional.
Series [16] relates to Streptococcus pneumoniae. Put plainly: Antibacterial activity against Streptococcus pneumoniae ZPM 187 assessed as reduction in cell viability incubated for 24 hrs by muller hinton broth microdilution based XTT assay. Format: functional.
The subject of series [17] is Candida tropicalis. Briefly: Antifungal activity against Candida tropicalis CCY 29-7-62 assessed as reduction in fungal growth incubated for 48 hrs by muller hinton broth microdilution based XTT assay. Format: functional.
Series [18] has as its system Vibrio cholerae. Briefly: Antibacterial activity against Vibrio cholerae O139 CIRS 245 assessed as reduction in cell viability incubated for 24 hrs by muller hinton broth microdilution based XTT assay. Format: functional.
Series [19] addresses Cholinesterase (Homo sapiens) (UniProt P06276). Briefly: Inhibition of human BChE at 100 uM using acetylthiocholine iodide as substrate by DTNB reagent based Ellman spectrophotometric analysis relative to control.

Activity calls are given as the source filed them.

Cholinesterase (Homo sapiens), sequence (P06276 whole entry): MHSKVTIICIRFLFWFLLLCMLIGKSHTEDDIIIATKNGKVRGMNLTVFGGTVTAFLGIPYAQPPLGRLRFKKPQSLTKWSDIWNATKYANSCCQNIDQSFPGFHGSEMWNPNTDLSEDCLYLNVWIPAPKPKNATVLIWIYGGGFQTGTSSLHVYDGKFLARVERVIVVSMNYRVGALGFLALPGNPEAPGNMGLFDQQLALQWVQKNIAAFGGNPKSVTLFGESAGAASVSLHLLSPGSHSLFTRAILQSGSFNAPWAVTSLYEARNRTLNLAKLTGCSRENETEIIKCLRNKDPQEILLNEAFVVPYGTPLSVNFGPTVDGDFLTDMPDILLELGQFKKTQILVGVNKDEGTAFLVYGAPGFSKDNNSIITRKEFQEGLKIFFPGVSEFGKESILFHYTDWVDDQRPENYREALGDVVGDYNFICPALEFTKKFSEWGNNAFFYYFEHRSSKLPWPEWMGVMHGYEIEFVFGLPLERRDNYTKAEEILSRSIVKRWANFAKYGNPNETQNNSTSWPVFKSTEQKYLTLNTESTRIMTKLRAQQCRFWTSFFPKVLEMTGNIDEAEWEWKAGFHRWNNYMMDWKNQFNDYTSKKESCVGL

Broadly, the IC50 is the concentration that gives 50% inhibition. As for `O=C1C[C@@H](O)[C@@H]([C@@H](O)[C@H](O)CO)O1`, the “Ratio IC50” value was 2 in series [1], 1.1 in [8] and 1.3 in series [11]. Moreover, the concentration for half-maximal inhibition (IC50) in series [2] worked out at 2.64 µM; in series [3], 8.64 µM; in [4] it was 0.74 µM; in series [6], 5.32 µM; in series [7] it was 3.25 µM; in series [9] it was 2.36 µM. For the same compound, the half-maximal inhibitory concentration (IC50) in series [10] came out at 0.63 µM; in series [12], 0.89 µM. In series [5], the concentration for half-maximal inhibition (IC50) at 72 h is greater than 100 µM.
Take `O=C1C[C@@H]2O[C@@H](CO)[C@@H](O)[C@@H]2O1`: the half-inhibitory concentration (IC50) in series [2] was determined as 10.2 µM; in series [3], 15.9 µM; in series [4] it was 11.2 µM; in series [6] it was 30 µM; in series [7], 7.38 µM; in [9], 5.56 µM. The figures for the 50% inhibitory concentration (IC50) in [10] and in series [12] were 4.02 µM and 7.26 µM, respectively. Also, the “Ratio IC50” value in [13] was found to be 2.1. Besides, the half-maximal inhibitory concentration (IC50) at 72 h in series [5] is greater than 100 µM.
`O=C1C[C@H]2O[C@@H]3CO[C@@H]3[C@H]2O1`: in [1], the “Ratio IC50” value is 2.5. The IC50 turned out to be 15.7 µM in [2]; 18.6 µM in series [3]; 15.6 µM in series [4]; 5.36 µM in [6]; 10.4 µM in series [7]; 2.03 µM in series [9]. In addition, the IC50 turned out to be 1.05 µM in [10] and 1.2 µM in series [12]. Also, the half-inhibitory concentration (IC50) at 72 h in [5] is greater than 100 µM.
A word on the MBC: it is the smallest concentration meeting the test's criterion for killing. What is called MIC is the lowest concentration found to suppress growth. As a reminder, the MFC is the smallest concentration meeting the test's criterion for killing the fungus. Turning to `O=C1C[C@@H]2O[C@@H](CI)[C@@H](O)[C@@H]2O1`, the values for the minimal bactericidal concentration (MBC) in [14], in series [16] and in [18] were greater than 1000 µg/mL, greater than 100 µg/mL and greater than 100 µg/mL, respectively. For the same compound, the MIC in series [15] was greater than 1000 µg/mL. The IC50 in [2] was 26.2 µM; in series [3] it was 24.6 µM; in series [4], 16.7 µM; in series [6], 17.7 µM; in series [7], 22.8 µM; in [9] it was 15.1 µM. The IC50 in series [10] turned out to be 19.4 µM; in series [12], 20.1 µM. Besides, the IC50 at 72 h in series [5] was greater than 100 µM. The MFC in series [17] was greater than 100 µg/mL. Also, in series [19], the inhibition entry was “inactive”.
On to `CO[C@@H]1CC(=O)O[C@@H]1[C@@H](OC(C)=O)[C@@H](COC(=O)c1ccccc1)OC(C)=O`, for which the half-inhibitory concentration (IC50) came out at 31.4 µM in [2]; 9.78 µM in series [3]; 16.5 µM in [4]; 28.4 µM in [6]; 22.1 µM in series [7]; 7.23 µM in [9]. The IC50 in series [10] is 13.5 µM; in series [12], 6.31 µM. The “Ratio IC50” value in series [13] turned out to be 2.1. For the same compound, the IC50 at 72 h in series [5] is greater than 100 µM.
With `CO[C@H]1CC(=O)O[C@H]1[C@H](O)[C@H](O)COC(=O)c1ccccc1`, the MBC in series [14] is greater than 1000 µg/mL; in series [16] it was greater than 100 µg/mL; in [18], greater than 100 µg/mL. In addition, in [15], the minimal inhibitory concentration (MIC) was greater than 1000 µg/mL. The IC50 in series [2] was 19.7 µM; in series [3] it was 18.7 µM; in [4], 9.45 µM; in [6], 45.2 µM; in series [7], 16.5 µM; in [9], 3.97 µM. The results for the concentration for half-maximal inhibition (IC50) in [10] and in [12] were 14.1 µM and 16 µM, respectively. In [5], the half-maximal inhibitory concentration (IC50) at 72 h was greater than 100 µM. Also, the minimum fungicidal concentration (MFC) in series [17] is greater than 100 µg/mL. Further, in series [19], the inhibition result is “inactive”.
